Series [1] relates to KB. Put plainly: in vitro screen against human tumor cell line KB (nasopharyngeal), GI50. The format is cell-based. Particulars: read-out: GI50 KB.
The subject of series [2] is A549. Put plainly: in vitro screen against human tumor cell line A549 (lung), GI50. It counts as cell-based. Particulars: read-out: GI50 A549.
For series [3], the system named is KBvin. As to the kind of experiment: in vitro screen against KBvin cell line, GI50. The format is cell-based. Particulars: Homo sapiens.
Series [4] concerns DU145. Put plainly: in vitro screen against human tumor cell line DU-145 (prostate), GI50. The format is cell-based. Particulars: read-out: GI50 DU145.
In series [5] the test system is panel of cancer cell lines including A549 (lung), DU-145 (prostate), KB (nasopharyngeal), and HCT-8 (colon).
The test system of series [6] is HCT-8. As to the kind of experiment: in vitro screen against human tumor cell line HCT-8 (colon), GI50. It counts as cell-based. Particulars: Homo sapiens, read-out: GI50 HCT-8.
The test system of series [7] is panel of cancer cell lines including A549 (lung), DU-145 (prostate), KB (nasopharyngeal), and HCT-8 (colon). As to the kind of experiment: cells. Particulars: Homo sapiens, read-out: average GI50.
Series [8] relates to SKBR. As to the kind of experiment: in vitro screen against cancer cell line SKBR (breast), GI50. The format is cell-based. Particulars: Example 3, Table 1.
Setting [9] is: Homo sapiens, KB, Example 2, Table 3, 13-aza-cryptopleurines.
Setting [10] is: Homo sapiens, A549, Example 2, Table 3, 13-aza-cryptopleurines.
Setting [11] is: Table 3, cells marked (KBvin) in the HCT-8 column.
Setting [12] is: Homo sapiens, DU-145, Example 2, Table 3, 13-aza-cryptopleurines.
Where [13] appears, read: Example 2, Table 4, 12-aza-cryptopleurines.
[14] abbreviates: Homo sapiens, KB, Example 3, Table 1.
Setting [15] is: Homo sapiens, A549, Example 3, Table 1.
Setting [16] is: Homo sapiens, DU-145, Example 3, Table 1.
The mark [17] stands for this setting: HCT-8, Example 2, Table 3, 13-aza-cryptopleurines.
Where [18] appears, read: Homo sapiens, KB, Example 2, Table 4, 12-aza-cryptopleurines.
Setting [19] is: Homo sapiens, A549, Example 2, Table 4, 12-aza-cryptopleurines.
[20] abbreviates: HCT-8, Example 2, Table 4, 12-aza-cryptopleurines.
[21] abbreviates: Homo sapiens, DU-145, Example 2, Table 4, 12-aza-cryptopleurines.

Structures are written as SMILES. Read-outs that look alike come from different tables or passages of the source. A value given as a limit tells only on which side of the number the result lay.

For `COc1ccc2c3c(c4cc(OC)c(OC)cc4c2c1)CC1CN(Cc2ccccc2)CN1C3` (stereo in doubt) [Compound 3j, (R)-12-aza-12N-benzyl-antofine], the melting point (in general, the temperature of the solid-liquid transition) was in the range of 95 to 97 °C. In addition, the GI50 (in general, the concentration giving 50% growth inhibition) in series [1] (Homo sapiens, KB, Example 2, Table 2, 12-aza-antofines) turned out to be 3.41 µM. In addition, the GI50 in series [2] (Homo sapiens, A549, Example 2, Table 2, 12-aza-antofines) amounted to 2.68 µM. In series [3] (Table 2, cells marked (KBvin) in the HCT-8 column), this compound showed a GI50 of 1.87 µM. In addition, the GI50 in series [4] (Homo sapiens, DU-145, Example 2, Table 2, 12-aza-antofines) is 4.62 µM.
Consider `COc1ccc2c3c(c4cc(OC)c(OC)cc4c2c1)CC1CN(CC(C)C)CCN1C3` (stereo in doubt) [Compound 8m, (R)-13-aza-13N-isobutyl-cryptopleurine], for which the melting point is 175 to 177 °C. Further, the GI50 in series [1] (setting [9]) was determined as 11.2 µM. Besides, in [2] (setting [10]), the GI50 worked out at 12.9 µM. This compound also showed a concentration for 50% growth inhibition (GI50) in series [3] (setting [11]) of 9.96 µM. Besides, in series [4] (setting [12]), the GI50 was 12.2 µM.
Compound `COc1ccc2c3c(c4cc(OC)c(OC)cc4c2c1)CC1CN(Cc2ccccc2)CCN1C3` (stereo in doubt) [Compound 8n, (R)-13-aza-13N-benzyl-cryptopleurine] had a melting point of 86 to 88 °C. The GI50 in [1] (setting [9]) came to 12.1 µM. Besides, the GI50 in series [2] (setting [10]) was 16.4 µM. This compound registered a GI50 in series [3] (setting [11]) of 7.64 µM. For the same compound, the GI50 in series [4] (setting [12]) was 11.9 µM.
Take `COc1ccc2c3c(c4cc(OC)c(OC)cc4c2c1)CC1CCN(CC(C)C)CN1C3` (stereo in doubt) [Compound 11g, (R)-12-aza-12N-isobutyl-cryptopleurine]: the melting point was in the range of 175 to 177 °C. The GI50 in [1] (setting [13]) came to 1.45 µM. Besides, in [2] (setting [13]), the GI50 came out at 5.11 µM. The compound further came in with a GI50 in [3] (Table 4, cell marked (KBvin) in the HCT-8 column) of 7.32 µM. Moreover, in series [4] (setting [13]), the GI50 worked out at 1.66 µM.
On to `COc1ccc2c3c(c4cc(OC)c(OC)cc4c2c1)C[C@H]1CC(=O)CN1C3` [Compound 8, (S)-12-oxo-antofine], for which the GI50 in series [1] (setting [14]) was determined as 0.5 µM; in series [2] (setting [15]), 0.29 µM; in series [3] (KBVIN, Example 3, Table 1), 0.43 µM; in [4] (setting [16]), 0.71 µM. Besides, in [5], the “range of cytotoxicity / anticancer activity in words” value was “middle nM to low μM range”.
`COC(=O)CN1CCN2Cc3c(c4cc(OC)c(OC)cc4c4cc(OC)ccc34)C[C@H]2C1` [Compound 8f, (S)-13-aza-13N-methoxycarbonylmethyl-cryptopleurine] showed a melting point of 111 to 113 °C. The GI50 in series [1] (setting [9]) turned out to be 14.7 µM. For the same compound, in series [2] (setting [10]), the GI50 was determined as 14.7 µM. The GI50 in series [6] (setting [17]) was determined as 14 µM. Besides, in series [4] (setting [12]), the GI50 amounted to 20.8 µM.
Regarding `COc1ccc2c3c(c4cc(OC)c(OC)cc4c2c1)C[C@H]1CN(CC2CC2)CCN1C3` [Compound 8g, (S)-13-aza-13N-cyclopropylmethyl-cryptopleurine], the melting point lay in the range of 160 to 162 °C. For the same compound, the GI50 in series [1] (setting [9]) worked out at 6.57 µM. Besides, the GI50 in series [2] (setting [10]) was 0.79 µM. Besides, the GI50 in [6] (setting [17]) was 0.25 µM. The GI50 in series [4] (setting [12]) amounted to 2.94 µM.
The corresponding values for `COc1ccc2c3c(c4cc(OC)c(OC)cc4c2c1)C[C@H]1CN(C2CC2)CCN1C3` [Compound 8h, (S)-13-aza-13N-cyclopropyl-cryptopleurine] are 115 to 117 °C, 23.4 µM, 23.2 µM, 13 µM and 17.9 µM.
The corresponding values for `COc1ccc2c3c(c4cc(OC)c(OC)cc4c2c1)C[C@H]1CN(C(=O)c2ccccc2)CCN1C3` [Compound 8i, (S)-13-aza-13N-benzoyl-cryptopleurine] are 203 °C (dec.), 20.1 µM, 15 µM, 18.1 µM and 15.7 µM.
For the compound `COc1ccc2c3c(c4cc(OC)c(OC)cc4c2c1)C[C@H]1CN(CCO)CCN1C3` [Compound 8j, (S)-13-aza-13N-hydroxylethyl-cryptopleurine], the melting point is 266 °C (dec.). Further, the GI50 in [1] (setting [9]) turned out to be 8.62 µM. Moreover, in series [2] (setting [10]), the GI50 came to 14.1 µM. In series [6] (setting [17]), the GI50 came out at 7.41 µM. The GI50 in series [4] (setting [12]) came out at 12.6 µM.
With `COc1ccc2c3c(c4cc(OC)c(OC)cc4c2c1)C[C@H]1C[C@@H](O)CN1C3` [Compound 9a, (12R,13aS)-12-hydroxyl-antofine], the GI50 in series [1] (setting [14]) stood at 0.78 µM; in [2] (setting [15]), 0.61 µM; in series [3] (KBVIN, Example 3, Table 1), 0.64 µM; in series [4] (setting [16]), 0.7 µM. The “range of cytotoxicity / anticancer activity in words” value in series [5] is “middle nM to low μM range”. Besides, in series [5] (Example 3), the “activity of 12R isomer compared with 12S isomer (9b)” value was found to be 3 fold.
`COc1ccc2c3c(c4cc(OC)c(OC)cc4c2c1)C[C@H]1C[C@H](O)CN1C3` [Compound 9b, (12S,13aS)-12-hydroxyl-antofine]: the GI50 in series [1] (setting [14]) worked out at 1.81 µM; in [2] (setting [15]) it was 2.27 µM; in series [3] (KBVIN, Example 3, Table 1), 2.21 µM; in [4] (setting [16]), 1.8 µM. For the same compound, the “range of cytotoxicity / anticancer activity in words” value in [5] is “middle nM to low μM range”.
On to `COc1ccc2c3c(c4cc(OC)c(OC)cc4c2c1)C[C@H]1CCN(CCO)CN1C3` [Compound 11a, (S)-12-aza-12N-hydroxylethyl-cryptopleurine], for which the melting point was 138 to 140 °C. Besides, in [1] (setting [18]), the GI50 worked out at 1.59 µM. Also, in series [2] (setting [19]), the GI50 came to 5.68 µM. Moreover, the GI50 in [6] (setting [20]) came to 10.7 µM. In addition, the GI50 in series [4] (setting [21]) worked out at 1.99 µM.
Compound `COc1ccc2c3c(c4cc(OC)c(OC)cc4c2c1)C[C@H]1CCN(CC(C)C)CN1C3` [Compound 11c, (S)-12-aza-12N-isobutyl-cryptopleurine] returned a melting point of 177 to 179 °C. For the same compound, in series [1] (setting [13]), the GI50 turned out to be 5.06 µM. Besides, in series [2] (setting [13]), the GI50 is 1.52 µM. Moreover, the GI50 in series [6] (setting [20]) worked out at 1.36 µM. In addition, the 50% growth inhibitory concentration (GI50) in series [4] (setting [21]) turned out to be 2.3 µM.
On to `COc1ccc2c3c(c4cc(OC)c(OC)cc4c2c1)C[C@H]1CCN(Cc2ccccc2)CN1C3` [Compound 11d, (S)-12-aza-12N-benzyl-cryptopleurine], for which the melting point lay in the range of 211 to 213 °C. Moreover, the 50% growth inhibitory concentration (GI50) in series [1] (setting [18]) was > 40 µM. In addition, in series [2] (setting [19]), the GI50 amounted to 29.9 µM. The GI50 in series [6] (setting [20]) stood at 21.3 µM. In addition, the GI50 in series [4] (setting [21]) is > 40 µM.
In the case of `COc1ccc2c3c(c4cc(OC)c(OC)cc4c2c1)C[C@H]1CCOCN1C3` [Compound 13, (S)-12-oxa-cryptopleurine], the GI50 in series [1] (Homo sapiens, KB, Example 2, Table 5) was 1.66 µM; in series [2] (Homo sapiens, A549, Example 2, Table 5), 1.79 µM; in series [6] (HCT-8, Example 2, Table 5) it was 1.45 µM; in [7] it was 1 to 2 µM; in series [4] (Homo sapiens, DU-145, Example 2, Table 5), 1.82 µM.
`COc1ccc2c3c(c4cc(OC)c(OC)cc4c2c1)C[C@H]1C[C@@H](O)CCN1C3` [Compound 13a, (13S,14aS)-13-hydroxyl-eryptopleurine]: the GI50 is 0.043 µM in [1] (setting [14]); 0.072 µM in [2] (setting [15]); 0.295 µM in [8]; 0.078 µM in series [3] (KBVIN, Example 3, Table 1); 0.059 µM in series [4] (setting [16]). In series [5], the “range of cytotoxicity / anticancer activity in words” value was “low nM range”.
For the compound `COc1ccc2c3c(c4cc(OC)c(OC)cc4c2c1)C[C@H]1C[C@H](O)CCN1C3` [Compound 13b, (13R,14aS)-13-hydroxyl-cryptopleurine], the concentration for 50% growth inhibition (GI50) came to 0.023 µM in [1] (setting [14]); 0.022 µM in series [2] (setting [15]); 0.072 µM in series [8]; 0.025 µM in series [3] (KBVIN, Example 3, Table 1); 0.011 µM in [4] (setting [16]). Further, in series [5], the “range of cytotoxicity / anticancer activity in words” value is listed as “low nM range”.
Regarding `COc1ccc2c3c(c4cc(OC)c(OC)cc4c2c1)C[C@H]1CCC(=O)CN1C3` [Compound 18, (R)-12-oxo-cryptopleurine], the GI50 in series [1] (setting [14]) amounted to 0.734 µM; in [2] (setting [15]) it was 0.91 µM; in [8], 3.34 µM; in series [3] (KBVIN, Example 3, Table 1), 1.48 µM; in [4] (setting [16]), 1.7 µM.
With `COc1ccc2c3c(c4cc(OC)c(OC)cc4c2c1)C[C@H]1CC[C@@H](O)CN1C3` [Compound 19a, (12R,14aR)-12-hydroxyl-cryptopleurine], the GI50 in series [1] (setting [14]) turned out to be 0.033 µM; in series [2] (setting [15]), 0.082 µM; in [8], 0.348 µM; in series [3] (KBVIN, Example 3, Table 1), 0.045 µM; in [4] (setting [16]), 0.066 µM. Besides, in series [5], the “range of cytotoxicity / anticancer activity in words” value was “lower nM range”.
For the compound `COc1ccc2c3c(c4cc(OC)c(OC)cc4c2c1)C[C@H]1CC[C@H](O)CN1C3` [Compound 19b, (12S,14aR)-12-hydroxyl-cryptopleurine], the GI50 in series [1] (setting [14]) came out at 2.25 µM; in [2] (setting [15]), 2.51 µM; in series [8] it was 6.44 µM; in series [3] (KBVIN, Example 3, Table 1), 3.07 µM; in series [4] (setting [16]), 2.25 µM. Further, in [5], the “range of cytotoxicity / anticancer activity in words” value is listed as “low μM range”.

Source of the values: patent US9216977B2 (The University of North Carolina at Chapel Hill, priority 2009, dated 2015).
